This is an account of results in patent US7217570B2, “Organotypic intestinal culture and methods of use thereof” (The Wistar Institute of Anatomy and Biology, priority 2001, dated 2007).

The test system of assay [1] is enteric epithelial cells. Put plainly: Growth factor modulation of organotypic culture in reduced or modified media (Example 2). The assay is classed as cell-based, human. As to conditions: growth factor added individually to base medium (MCDB 201/L15, transferrin, antibiotics). As for the experimental part:
To determine the role of growth factors on proliferation of colonic epithelial cells, this growth medium was modified by changing combinations of growth factors and deleting serum. Keratinocyte growth factor (KGF, R&D Systems) at 20 ng/ml was also tested as part of 23 growth factor combinations. Total relative cell numbers of a specific type were counted as an average of all nuclei counts from a minimum of 3 randomly selected cross-sections of a reconstruct. Goblet cells were counted based on their typical morphology and positive Alcian staining in at least 3 randomly selected slides. Proliferation rates in % were established by counting the number of BrdU or Ki-67-positive nuclei per total epithelial cell nuclei of section. Apoptotic cells were counted in H&E-stained sections (Vagunda, V. et al. 2000 Anal. Quant. Cytol. Histol., 22:307–310). Apoptotic bodies and nuclei were determined according to the size and numbers of the fragments. Apoptosis was calculated as percentage of total nuclei per section (Kerr, J F. et al. 1972 Br. J. Cancer, 26:239–257) To define the role of critical growth factors supporting growth and differentiation of the enteric epithelial cells, an organotypic culture, such as that described in Example 1, was grown in medium in which the number of supplements was reduced. In other experiments, the growth factors, including insulin, EGF, SCF, ET-3, KGF, bFGF, or AMF were added individually to the base medium (MCDB 201/L15 medium with transferrin and antibiotics). In each case, epithelial cell proliferation was not supported in the organotypic culture. In another experiment, the organotypic cultures were prepared by seeding epithelial cells on the artificial stroma in complete medium C or medium L/S/E or medium L. Medium C contained transferrin, insulin, bFGF, EGF, ET-3, HGF, LIF, SCF, AMF, and 1% FCS as supplements. L/S/E medium contained transferrin, insulin, LIF, SCF, ET-3, EGF, and 1% FCS. L medium contained transferrin, insulin, LIF, EGF, and 1% FCS. Sections of the cultures were stained with H&E and Alcian blue after 12 hours (day 0) and 4 days. Values were generated SD of 5 fields from 2 independent experiments. […] The L/S/E-supplemented base medium (LIF, SCF, ET-3, EGF, insulin, and 1% FCS) induced formation by day 4 of highly disorganized structures of stratified and pseudostratified epithelial cells. The epithelium was hyperplastic with morphological atypia. In contrast to results obtained with complete growth medium, only the upper surface rather than the entire artificial stroma was covered with epithelium.

In assay [2] the test system is fibroblasts. The experiment in a line: Constriction of collagen matrix by embedded fibroblasts and fibroblast numbers. Type of assay: cell-based, human. As for the experimental part:
Human smooth muscle cells HIAS119, kindly provided by Dr. E. Levine, The Wistar Institute, were isolated from large blood vessels and maintained in medium M199, supplemented with 10% FCS, 2 mM L-glutamine, and 50 μg/ml bovine hypothalamus extract (Oda, D. et al, 1998 In Vitro Cell. Dev. Biol. Anim., 34, 46–52). Fibroblasts at 8×10^5/ml were embedded in collagen type I (Organogenesis, Canton, Mass.) to a final concentration of 0.9 to 1.1 mg/ml in DMEM supplemented with 50 μM vitamin C (Sigma), 1.66 mM L-glutamine (GIBCO-BRL), and 1% FCS. The suspension was neutralized, pH 7.2, using 7.5% sodium bicarbonate. Chambered slides, Lab-Tek 8 wells (Nunc International, Rochester, N.Y.), were filled with 0.2 ml of the collagen and cell suspension. […]
(§1) Cell numbers were determined per high-power field (0.11×0.18 mm) using 40× magnification as the mean (±SD) of 364 measurements. Constriction of collagen matrices was measured as the length of the longitudinal axis of collagen harvested on days 0.5, 4 and 10 (mean±SD of 32 measurements of 4 samples. Positive cells per area were counted in 12 consecutive fields per cross-section (mean±SD of 16 areas of 2 random cross-sections from 4 samples. Relative number of positive cells per area was expressed as mean±SD of positive/total cells from 16 areas of 2 random cross-sections for each sample. Statistical significance was tested using Student's t-test.

The test system of assay [3] is colonic epithelial cells. The experiment in a line: Differentiated cells (goblet, enteroendocrine, carbonic anhydrase II) in organotypic colon cultures with LIF. The assay is classed as cell-based, human.
Text: The organotypic cultures were characterized as follows. Harvested organotypic cultures were fixed in 1.5% paraformaldehyde and embedded in paraffin. For electron microscopy (EM), cultures were fixed in 4% glutaraldehyde. For histochemistry and immunohistochemistry, 5-μm thick sections were cut from the paraffin beds and stained with hematoxylin and eosin (H&E) or Alcian Blue using standard procedures.
Goblet cells were detected using Alcian Blue and EM. Enteroendocrine cells were identified by chromogranin A staining and EM. Immunohistochemical staining was done with monoclonal antibodies specific for: BrdU (Amersham), Ki67 (DAKO, Carpinteria, Calif.), α-smooth muscle actin (SMA) (Sigma), cytokeratin 19 (CK 19; antibody BA17 [33] kindly provided by Dr. J. Kovarik, Brno, Czech Rep.), chromogranin A (Novocastra, New Castle Upon Tyne, UK) and carbonic anhydrase II (The Binding Site Limited, Birmingham, UK). Immunohistochemistry was performed by standard techniques as described (Dai, C. Y. et al, 2000 Gastroenterology, 119, 929–942). Alkaline phosphatase activity of paraffin-embedded samples was detected using colorimetric substrate (AP Substrate Kit, SK 15100, Vector, Burlingame, Calif.).
as §1

The subject of assay [4] is colonic epithelial cells. The experiment in a line: Proliferation of organotypic colon cultures in LIF-supplemented base medium (BrdU, 3H-thymidine, cell numbers per area). Type of assay: cell-based, human. As for the experimental part:
Colonic epithelial cells described above were seeded on top of collagen gels containing embedded fibroblasts described above in 0.4 ml of complete growth medium. After seeding onto the matrix of collagen type I with embedded fibroblasts, samples were incubated at 37° C. in 5% CO2 for 60–90 minutes in a low volume of medium (50–100 μl) to enhance attachment. The epithelial cells and clusters attached within 60 minutes. The wells were then filled with complete growth medium. Medium was changed daily for 10 days, then three times per week for an additional 21 days.
Proliferation of organotypic cultures was determined by adding bromodeoxyuridine (BrdU) to the medium according to the manufacturer's instructions (Amersham Pharmacia Biotech, Inc., Piscataway, N.J.). Thymidine incorporation was measured in cells, incubated with 1 μCi ^3H-thymidine/well for 18 hours before harvest and determination of radioactivity.
as §1

The subject of assay [5] is colonic epithelial cells. Put plainly: Coating of artificial stroma or plastic with extracellular matrix proteins (Example 3). Type of assay: cell-based, human. The source says: Another embodiment of an organotypic culture prepared as described substantially as in Example 2, has an additional component. An extracellular matrix was applied to the organotypic cultures by coating the artificial stroma with matrix proteins Laminin-2 […] (Life Technologies, Rockville, Md.), Laminin-1 […] (Sigma), or Matrigel® gel matrix (Collaborative Research, Bedford, Mass.), which contains Laminin-1 and other matrix proteins, such as collagen IV and […] (Burgeson, R E., et al. 1994 Matrix Biol., 14:209–211 and Page, KC. et al. 1990 J. Biol. Reprod., 43:659–664). Fifty to 100 μl of base medium containing 20 ng/ml of laminins were added onto the surface of the artificial stroma for 60 minutes at 37° C. Matrigel® matrix was diluted 1:5 to 1:10 in base medium before use. After incubation, unbound laminins or Matrigel® matrix were removed by two washings with base medium. The organotypic cultures were incubated at 37° C. in 5% CO2 in growth medium, which was changed daily for 7 days, then three times per week for an additional 21 days. Growth and differentiation of colonic epithelium in growth medium was regulated by ECM components at the interface between the stroma and the epithelial layer. These ECM experiments were done in base medium, supplemented with LIF, SCF, ET3, EGF, insulin, and 1% FCS. […]

The subject of assay [6] is colorectal carcinoma cell line HT29. The experiment in a line: Growth of carcinoma cell line on laminin substrates. Type of assay: cell-based. As to conditions: Laminin-2 compared to Laminin-1. The source says: Quantitative analysis of the growth fractions confirmed that the different laminins control growth and differentiation. […] Enteric epithelial cells spread similarly on substrates of Laminins-2 and —I bound to plastic of culture dishes.

“Also recorded” adds a separate entry of the source. Where no end group is shown, it is not given here.

On to basic fibroblast growth factor [bFGF], for which, in assay [1], the epithelial cell proliferation result is reported as “not supported”.
As to leukemia inhibitory factor [LIF], the “collagen constriction by fibroblasts” value in assay [2] (LIF in base medium) is on record as “did not change”. The fibroblast numbers result in assay [2] (LIF-stimulated cultures versus control) is “no differences”. Moreover, the “expression of differentiation marker carbonic anhydrase II” value in assay [3] (LIF only added to base medium) is recorded as “did not express”. Also, the “percentage of goblet cells among total cells and per area” value in assay [3] (LIF, FIG. 3A) is listed as “lack of stimulation”. In addition, in assay [3] (LIF-cultured, p=0.81 versus control base medium), the “relative numbers of goblet cells (of all enterocytes)” value is given as 3.8±3.5%. For the same substance, in assay [3] (LIF-stimulated samples, p=0.13 versus samples without LIF), the “numbers of goblet cells per area” value stood at 2.25±1.66. Moreover, the “relative numbers of enteroendocrine cells” value in assay [3] (in the presence of LIF) is “significantly decreased; also recorded: decrease”. In addition, the 3H-thymidine incorporation result in assay [4] (BM+LIF compared with BM only, after 2 days) was “Significant stimulation”. Moreover, the “Growth of epithelial cells” value in assay [4] (LIF added to base medium, organotypic culture) is “significantly stimulated”. In addition, in assay [4] (LIF-containing base medium versus base medium), the “number of colonic epithelial cells” value is listed as “significantly higher”. Besides, the “numbers of BrdU-positive and total epithelial cells” value in assay [4] (LIF-stimulated cultures) was “significantly higher”.
Consider “Laminin-2: matrix protein Laminin-2 α2β1γ1 (Life Technologies)”, for which, in assay [5] (coating of artificial stroma, quantitative analysis of growth fractions), the “control of growth and differentiation of colonic epithelium” value is given as “stimulated cell growth”. The “survival of epithelial cells by day 5” value in assay [5] (laminin bound to plastic of culture dishes) is reported as “survived only with Laminin-2”. Moreover, the “growth of HT29 cells” value in assay [6] is “better growth”.
On to stem cell factor [SCF], for which the epithelial cell proliferation entry in assay [1] is reported as “not supported”.
For the substance autocrine motility factor [AMF], the epithelial cell proliferation entry in assay [1] is “not supported”.
As to insulin, the epithelial cell proliferation entry in assay [1] is listed as “not supported”.
Consider “endothelin-3 (CTCFTYKDKECVYYCHLDIIW; ends and bridges not checked; cysteine pairing not given here; UniProt P14138 97-117, looked up) [ET-3, endothelin-3 (Peninsula Labs)]”, for which the epithelial cell proliferation entry in assay [1] was “not supported”.
